Read-outs that look alike come from different tables or passages of the source.
Target: human DP2 (Homo sapiens (Human), UniProt Q9Y5Y4)
Assay: DP-2 Binding Inhibition Assay (3H-PGD2 binding to membranes of K562 cells expressing DP2)
Conditions: inhibition of 3H-PGD2 binding
Procedure, shortened: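 Membranes from K562 stably expressing DP2, incubated 60 min at room temperature with ³H-PGD2 and compound in Tris pH 7.4 buffer with 0.1% BSA, 1% HSA or 4% HSA; filtration read-out. Nonspecific binding: 1 μM unlabeled PGD2 or 5 μM known antagonist. EC50 from 4-parameter logistic fit.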

[1] = read-out: EC50 (nM) 4% HSA, 4% HSA
[2] = read-out: EC50 (Nm) 1% HSA, 1% HSA

human DP2, sequence (Q9Y5Y4 whole entry): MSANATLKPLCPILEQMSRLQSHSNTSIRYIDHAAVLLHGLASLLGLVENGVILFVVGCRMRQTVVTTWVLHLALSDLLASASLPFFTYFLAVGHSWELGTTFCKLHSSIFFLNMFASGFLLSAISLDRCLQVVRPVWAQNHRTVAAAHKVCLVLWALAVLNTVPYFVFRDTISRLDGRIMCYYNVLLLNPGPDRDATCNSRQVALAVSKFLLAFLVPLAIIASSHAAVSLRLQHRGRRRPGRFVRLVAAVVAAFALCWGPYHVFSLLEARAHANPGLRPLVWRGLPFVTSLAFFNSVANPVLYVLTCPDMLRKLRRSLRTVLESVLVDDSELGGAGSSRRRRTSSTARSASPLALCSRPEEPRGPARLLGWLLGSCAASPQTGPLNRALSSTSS

EC50 [1]	EC50 [2]	Compound
841 nM	–	O=C(NC1CCN(c2ccc(Cl)cc2Cl)CC1)c1ccc(Oc2cc3c(cc2Cl)C(C(=O)O)CCO3)cc1 (stereo not shown) [Example 124, Sodium 6-chloro-7-(4-(1-(2,4-dichlorophenyl)piperidin-4-ylcarbamoyl)phenoxy)chroman-4-carboxylate]
104 nM	–	Cc1cccc(-c2cccc(NC(=O)c3ccc(Oc4cc5c(cc4C#N)C(C(=O)O)CCO5)cc3)c2)c1C (stereo not shown) [Example 109, 6-Cyano-7-(4-(2′,3′-dimethylbiphenyl-3-ylcarbamoyl)phenoxy)chroman-4-carboxylic acid]
68.2 nM	–	O=C(NCCc1ccc(Cl)cc1)c1ccc(Oc2c(C3CC3)cc3c(c2C2CC2)OCCC3C(=O)O)cc1 (stereo not shown) [Example 39, Sodium 7-(4-(4-chlorophenethylcarbamoyl)phenoxy)-6,8-dicyclopropylchroman-4-carboxylate]
333 nM	–	O=C(NC1CCC(c2cccc(F)c2)C1)c1ccc(Oc2cc3c(cc2Cl)C(C(=O)O)CCO3)cc1 (stereo not shown) [Example 171, Sodium 6-chloro-7-(4-(3-(3-fluorophenyl)cyclopentylcarbamoyl)phenoxy)chroman-4-carboxylate]
298 nM	–	O=C(NC1CCC(c2cccc(C(F)(F)F)c2)C1)c1ccc(Oc2cc3c(cc2Cl)C(C(=O)O)CCO3)cc1 (stereo not shown) [Example 170, Sodium 6-chloro-7-(4-(3-(3-(trifluoromethyl)phenyl)cyclopentylcarbamoyl)phenoxy)chroman-4-carboxylate]
–	37.4 nM	N#Cc1cc2c(cc1Oc1ccc(C(=O)NCCc3ccccc3)cc1)OCCC2C(=O)O (stereo not shown) [Example 5, 6-Cyano-7-(4-(phenethylcarbamoyl)phenoxy)chroman-4-carboxylic acid]
243 nM	–	O=C(NCCc1ccc(Cl)cc1F)c1ccc(Oc2cc3c(cc2Cl)C(C(=O)O)CCO3)cc1 (stereo not shown) [Example 230, 6-chloro-7-(4-(4-chloro-2-fluorophenethylcarbamoyl)phenoxy)chroman-4-carboxylic acid]
3330 nM	–	O=C(NCCC1CC1)c1ccc(Oc2cc3c(cc2Cl)C(C(=O)O)CCO3)cc1 (stereo not shown) [Example 25, Sodium 6-chloro-7-(4-(2-cyclopropylethylcarbamoyl)phenoxy)chroman-4-carboxylate]
1110 nM	–	CC(C)(C)CCNC(=O)c1ccc(Oc2cc3c(cc2Cl)C(C(=O)O)CCO3)cc1 (stereo not shown) [Example 179, Sodium 6-chloro-7-(4-(3,3-dimethylbutylcarbamoyl)phenoxy)chroman-4-carboxylate]
–	37.4 nM	CC(Cc1ccc(Cl)cc1)NC(=O)c1ccc(Oc2cc3c(cc2C#N)C(C(=O)O)CCO3)cc1 (stereo not shown) [Example 132, 7-(4-(1-(4-Chlorophenyl)propan-2-ylcarbamoyl)phenoxy)-6-cyanochroman-4-carboxylic acid]
81.5 nM	–	O=C(NCCc1cc(F)ccc1Oc1ccc(Cl)c(Cl)c1)c1ccc(Oc2cc3c(cc2Cl)C(C(=O)O)CCO3)cc1 (stereo not shown) [Example 212, sodium 6-chloro-7-(4-(2-(3,4-dichlorophenoxy)-5-fluorophenethylcarbamoyl)phenoxy)chroman-4-carboxylate]
123 nM	–	O=C(NCCc1ccc(Br)cc1Cl)c1ccc(Oc2cc3c(cc2Cl)C(C(=O)O)CCO3)cc1 (stereo not shown) [Example 28, Sodium 7-(4-(4-bromo-2-chlorophenethylcarbamoyl)phenoxy)-6-chlorochroman-4-carboxylate]
607 nM	–	O=C(NCCc1ccc2c(c1)OCO2)c1ccc(Oc2cc3c(cc2Cl)C(C(=O)O)CCO3)cc1 (stereo not shown) [Example 110, Sodium 7-(4-(2-(benzo[d][1,3]dioxol-5-yl)ethylcarbamoyl)phenoxy)-6-chlorochroman-4-carboxylate]
140 nM	–	CC(C)(C)c1ccc(CCNC(=O)c2ccc(Oc3cc4c(cc3Cl)C(C(=O)O)CCO4)cc2)cc1 (stereo not shown) [Example 142, Sodium 7-(4-(4-tert-butylphenethylcarbamoyl)phenoxy)-6-chlorochroman-4-carboxylate]
980 nM	108 nM	O=C(NCCc1ccc(Cl)cc1)c1ccc(Oc2ccc3c(c2)OCCC3C(=O)O)cc1 (stereo not shown) [Example 128, 7-(4-(4-chlorophenyethylcarbamoyl)phenoxy)chroman-4-carboxylic acid]
40.2 nM	–	O=C(NCCc1ccccc1-c1ccccc1Cl)c1ccc(Oc2cc3c(cc2Cl)C(C(=O)O)CCO3)cc1 (stereo not shown) [Example 96, Sodium 6-chloro-7-(4-(2-(2′-chlorobiphenyl-2-yl)ethylcarbamoyl)phenoxy)chroman-4-carboxylate]
287 nM	–	O=C(NCCc1ccccc1-c1ccc(Cl)cc1)c1ccc(Oc2cc3c(cc2Cl)C(C(=O)O)CCO3)cc1 (stereo not shown) [Example 94, Sodium 6-chloro-7-(4-(2-(4′-chlorobiphenyl-2-yl)ethylcarbamoyl)phenoxy)chroman-4-carboxylate]
179 nM	–	O=C(NC1CCC(c2cccc(Cl)c2)C1)c1ccc(Oc2cc3c(cc2Cl)C(C(=O)O)CCO3)cc1 (stereo not shown) [Example 167, 6-Chloro-7-(4-(3-(3-chlorophenyl)cyclopentylcarbamoyl)phenoxy)chroman-4-carboxylic acid]

EC50 [1]	EC50 [2]	Compound
234 nM	–	O=C(NCCc1ccc2ccccc2c1)c1ccc(Oc2cc3c(cc2Cl)C(C(=O)O)CCO3)cc1 (stereo not shown) [Example 87, Sodium 6-chloro-7-(4-(2-(naphthalen-2-yl)ethylcarbamoyl)phenoxy)chroman-4-carboxylate]
–	18.9 nM	CC(C)(C)c1ccc(CCNC(=O)c2ccc(Oc3cc4c(cc3C#N)C(C(=O)O)CCO4)cc2)cc1 (stereo not shown) [Example 57, 7-(4-(4-tert-Butylphenethylcarbamoyl)phenoxy)-6-cyanochroman-4-carboxylic acid]
638 nM	–	O=C(NCCCCc1ccc(Cl)cc1Cl)c1ccc(Oc2cc3c(cc2Cl)C(C(=O)O)CCO3)cc1 (stereo not shown) [Example 19, Sodium 6-chloro-7-(4-(4-(2,4-dichlorophenyl)butylcarbamoyl)phenoxy)chroman-4-carboxylate]
151 nM	–	Cc1cc(C(=O)NCCc2ccc(Cl)cc2Cl)ccc1Oc1cc2c(cc1Cl)C(C(=O)O)CCO2 (stereo not shown) [Example 182, Sodium 6-chloro-7-(4-(2,4-dichlorophenethylcarbamoyl)-2-methylphenoxy)chroman-4-carboxylate]
395 nM	–	O=C(NCCCCc1ccccc1Cl)c1ccc(Oc2cc3c(cc2Cl)C(C(=O)O)CCO3)cc1 (stereo not shown) [Example 17, Sodium 6-chloro-7-(4-(4-(2-chlorophenyl)butylcarbamoyl)phenoxy)chroman-4-carboxylate]
640 nM	–	O=C(NCCc1cccc2c1OCO2)c1ccc(Oc2cc3c(cc2Cl)C(C(=O)O)CCO3)cc1 (stereo not shown) [Example 193, sodium 7-(4-(2-(benzo[d][1,3]dioxol-4-yl)ethylcarbamoyl)phenoxy)-6-chlorochroman-4-carboxylate]
1120 nM	–	COc1ccc(C2CCCC(NC(=O)c3ccc(Oc4cc5c(cc4Cl)C(C(=O)O)CCO5)cc3)C2)cc1 (stereo not shown) [Example 161, 6-Chloro-7-(4-(3-(4-methoxyphenyl)cyclohexylcarbamoyl)phenoxy)chroman-4-carboxylic acid]
206 nM	–	N#Cc1cc2c(cc1Oc1ccc(C(=O)Nc3ccc(-c4ccccc4)cc3)cc1)OCCC2C(=O)O (stereo not shown) [Example 68, 7-(4-(Biphenyl-4-ylcarbamoyl)phenoxy)-6-cyanochroman-4-carboxylic acid]
71.6 nM	–	CC(C)Oc1cc(Cl)ccc1CCNC(=O)c1ccc(Oc2cc3c(cc2Cl)C(C(=O)O)CCO3)cc1 (stereo not shown) [Example 202, sodium 6-chloro-7-(4-(4-chloro-2-isopropoxy-phenethylcarbamoyl)phenoxy)chroman-4-carboxylate]
118 nM	–	COc1cc(OC)c(CCNC(=O)c2ccc(Oc3cc4c(cc3Cl)C(C(=O)O)CCO4)cc2)c(OC)c1 (stereo not shown) [Example 222, 6-chloro-7-(4-(2,4,6-trimethoxyphenethylcarbamoyl)phenoxy)chroman-4-carboxylic acid]
1580 nM	–	CC1(C)CCC(NC(=O)c2ccc(Oc3cc4c(cc3Cl)C(C(=O)O)CCO4)cc2)CC1 (stereo not shown) [Example 157, 6-Chloro-7-(4-(4,4-dimethylcyclohexylcarbamoyl)phenoxy)chroman-4-carboxylic acid]
242 nM	–	O=C(NC1CCN(c2cccc(C(F)(F)F)c2)C1)c1ccc(Oc2cc3c(cc2Cl)C(C(=O)O)CCO3)cc1 (stereo not shown) [Example 122, Sodium 6-chloro-7-(4-(1-(3-(trifluoromethyl)phenyl)pyrrolidin-3-ylcarbamoyl)phenoxy)chroman-4-carboxylate]
318 nM	–	O=C(NCC/C=C\c1ccccc1Cl)c1ccc(Oc2cc3c(cc2Cl)C(C(=O)O)CCO3)cc1 (stereo not shown) [Example 16, Sodium (Z)-6-chloro-7-(4-(4-(2-chlorophenyl)but-3-enylcarbamoyl)phenoxy)chroman-4-carboxylate]
405 nM	–	O=C(NCCCCc1ccccc1)c1ccc(Oc2cc3c(cc2Cl)C(C(=O)O)CCO3)cc1 (stereo not shown) [Example 13, Sodium 6-chloro-7-(4-(4-phenylbutylcarbamoyl)phenoxy)chroman-4-carboxylate]
331 nM	–	Cc1cc(C(=O)NCCc2ccc(Cl)cc2)ccc1Oc1cc2c(cc1Cl)C(C(=O)O)CCO2 (stereo not shown) [Example 181, Sodium 6-chloro-7-(4-(4-chlorophenethylcarbamoyl)-2-methylphenoxy)chroman-4-carboxylate]
426 nM	–	CSc1ccc(CCNC(=O)c2ccc(Oc3cc4c(cc3Cl)C(C(=O)O)CCO4)cc2)cc1 (stereo not shown) [Example 118, Sodium 6-chloro-7-(4-(4-(methylthio)phenethylcarbamoyl)phenoxy)chroman-4-carboxylate]
401 nM	–	O=C(NC1CCC(c2ccccc2)C1)c1ccc(Oc2cc3c(cc2Cl)C(C(=O)O)CCO3)cc1 (stereo not shown) [Example 165, 6-chloro-7-(4-(3-phenylcyclopentylcarbamoyl)phenoxy)chroman-4-carboxylic acid]
746 nM	–	O=C(NCCCCc1ccc(Cl)cc1)c1ccc(Oc2cc3c(cc2Cl)C(C(=O)O)CCO3)cc1 (stereo not shown) [Example 15, Sodium 6-chloro-7-(4-(4-(4-chlorophenyl)butylcarbamoyl)phenoxy)chroman-4-carboxylate]

Reference: patent publication US9556139B2, “6-substituted phenoxychroman carboxylic acid derivatives” (Array BioPharma Inc., priority 2008, dated 2017)
